Measurements: article PMC11992225, “Antibacterial compounds against non-growing and intracellular bacteria” (npj Antimicrobials and Resistance, 2025)
Where “and” joins values, the source holds several entries; their conditions need not be identical. Identical values can stand only once.

Assays:
non-growing UPEC CFT073 = assay: Dose-dependent killing analysis (CFU spot-plating) of stationary-phase UPEC; format: cell-based, Escherichia coli; settings: for killing, average Δlog10(CFU/ml) / log10(CFU/ml) of treated nongrowing bacteria (single replicates): E. coli in 1:4 CA-MHB (pH 7.4); for log10(CFU/ml) of treated nongrowing bacteria (single replicates): before treatment 8.977
Procedure: To differentiate between these scenarios, we used CFU counting by agar plating to assess the bactericidal effect on non-growing bacteria. […] Conversely, if no significant reduction in CFU is observed, the regrowth delay is due to PAE without killing. […] Fluoroquinolones are known to cause PAE after treatment of growing bacterial cultures.
(§1) For survival analysis, bacteria were cultivated as described for the dose–response dilution-regrowth assay. Assays with UPEC were conducted at the CBCS screening facility using 96-well plates with a 200 μl sample volume, and compounds were dispensed using the Echo® (Labcyte) system. P. aeruginosa and S. aureus samples were treated according to the protocol used for the dilution-regrowth experiments. Treated samples were serially diluted 10-fold in PBS, and 10 μl drops were spot-plated onto rectangular LB agar plates using either a Beckman NXP robot (for UPEC) or an Integra VIAFLO96 electronic pipette (for P. aeruginosa and S. aureus). The LB agar plates were incubated overnight at 37 °C and scanned. Colonies were counted at the spots of the lowest dilution where individual colonies could be accurately distinguished. Each colony was manually marked on a separate image layer using the GNU Image Manipulation Program, and counted using NIST’s Integrated Colony Enumerator (NICE 1.4) software. The experiments were performed in three biological replicates.

[1] = system: non-growing P. aeruginosa DSM1117; assay: Dose-dependent killing analysis (CFU spot-plating) of stationary-phase P. aeruginosa; format: cell-based, Pseudomonas aeruginosa; settings: for killing, average Δlog10(CFU/ml) / log10(CFU/ml) of treated nongrowing bacteria (single replicates): P. aeruginosa; for log10(CFU/ml) of treated nongrowing bacteria (single replicates): before treatment 8.887; for reduction of bacterial counts, non-growing P. aeruginosa: at 2.5 µM, 1:4 CA-MHB pH 7.4, 24 h treatment
Procedure: The cultures were grown and treated for 24 h in 1:4 CA-MHB (pH 7.4).
as §1

Compound: C[C@@H]1CN(c2c(F)c(N)c3c(=O)c(C(=O)O)cn(C4CC4)c3c2F)C[C@H](C)N1 [Sparfloxacin]
- killing, average Δlog10(CFU/ml) (non-growing UPEC CFT073; drug concentration 0.25): 0.241 log10(CFU/ml)
- log10(CFU/ml) of treated nongrowing bacteria (single replicates) (non-growing UPEC CFT073; drug concentration 0.25): 8.954 log10(CFU/ml) and 8.778 log10(CFU/ml) and 8.477 log10(CFU/ml)
- killing, average Δlog10(CFU/ml) (non-growing UPEC CFT073; drug concentration 0.5): 0.055 log10(CFU/ml)
- log10(CFU/ml) of treated nongrowing bacteria (single replicates) (non-growing UPEC CFT073; drug concentration 0.5): 9.114 log10(CFU/ml) and 8.699 log10(CFU/ml) and 8.954 log10(CFU/ml)
- killing, average Δlog10(CFU/ml) (non-growing UPEC CFT073; drug concentration 1): 0.246 log10(CFU/ml)
- log10(CFU/ml) of treated nongrowing bacteria (single replicates) (non-growing UPEC CFT073; drug concentration 1): 9.114 log10(CFU/ml) and 8.301 log10(CFU/ml) and 8.778 log10(CFU/ml)
- killing, average Δlog10(CFU/ml) (non-growing UPEC CFT073; drug concentration 2.5): 0.077 log10(CFU/ml)
- log10(CFU/ml) of treated nongrowing bacteria (single replicates) (non-growing UPEC CFT073; drug concentration 2.5): 9.380 log10(CFU/ml) and 8.477 log10(CFU/ml) and 8.845 log10(CFU/ml)
- killing, average Δlog10(CFU/ml) (non-growing UPEC CFT073; drug concentration 5): 0.562 log10(CFU/ml)
- log10(CFU/ml) of treated nongrowing bacteria (single replicates) (non-growing UPEC CFT073; drug concentration 5): 8.602 log10(CFU/ml) and 8.342 log10(CFU/ml) and 8.301 log10(CFU/ml)
- killing, average Δlog10(CFU/ml) (non-growing UPEC CFT073; drug concentration 10): 1.084 log10(CFU/ml)
- log10(CFU/ml) of treated nongrowing bacteria (single replicates) (non-growing UPEC CFT073; drug concentration 10): 8.301 log10(CFU/ml) and 7.602 log10(CFU/ml) and 7.778 log10(CFU/ml)
- killing, average Δlog10(CFU/ml) ([1]; drug concentration 0.1): 0.268 log10(CFU/ml)
- log10(CFU/ml) of treated nongrowing bacteria (single replicates) ([1]; drug concentration 0.1): 8.602 log10(CFU/ml) and 9.079 log10(CFU/ml) and 8.176 log10(CFU/ml)
- killing, average Δlog10(CFU/ml) ([1]; drug concentration 0.5): 0.923 log10(CFU/ml)
- log10(CFU/ml) of treated nongrowing bacteria (single replicates) ([1]; drug concentration 0.5): 8.114 log10(CFU/ml) and 8.000 log10(CFU/ml) and 7.778 log10(CFU/ml)
- killing, average Δlog10(CFU/ml) ([1]; drug concentration 2.5): 3.104 log10(CFU/ml)
- log10(CFU/ml) of treated nongrowing bacteria (single replicates) ([1]; drug concentration 2.5): 5.903 log10(CFU/ml) and 6.845 log10(CFU/ml) and 4.602 log10(CFU/ml)
- killing, average Δlog10(CFU/ml) ([1]; drug concentration 10): 4.887 log10(CFU/ml)
- log10(CFU/ml) of treated nongrowing bacteria (single replicates) ([1]; drug concentration 10): =<4 log10(CFU/ml)

Compound: O=C(O)c1cn(C2CC2)c2cc(N3CCNCC3)c(F)cc2c1=O [Ciprofloxacin]
- reduction of bacterial counts, non-growing P. aeruginosa [1]: more than four

Compound: CC1Sc2c(C(=O)O)c(=O)c3cc(F)c(N4CCNCC4)cc3n21 (stereo not drawn) [Ulifloxacin]
- reduction of bacterial counts, stationary phase P. aeruginosa ([1]; at 0.5 µM, 24 h treatment): more than four
- reduction of bacterial counts, non-growing P. aeruginosa [1]: more than four

Compound: C=C[C@]1(C)C[C@@H](OC(=O)CSC(C)(C)CNC(=O)[C@H](N)C(C)C)[C@]2(C)[C@H](C)CC[C@]3(CCC(=O)[C@H]32)[C@@H](C)[C@@H]1O [Valnemulin]
- bactericidal activity against non-growing UPEC (CFU counting) (non-growing UPEC CFT073; 24 h treatment of stationary phase culture): not bactericidal
